Source: paper PMC13110849 (ACS chemical neuroscience, 2023)

Target: RhoA•GMPPNP binding to ROCK1 (Homo sapiens, UniProt P61586)
Experiment: AlphaScreen assay of RhoA•GMPPNP binding to ROCK1
Conditions: varying concentration, 24 h, 4 °C

Sequence of RhoA•GMPPNP binding to ROCK1 (P61586 whole entry): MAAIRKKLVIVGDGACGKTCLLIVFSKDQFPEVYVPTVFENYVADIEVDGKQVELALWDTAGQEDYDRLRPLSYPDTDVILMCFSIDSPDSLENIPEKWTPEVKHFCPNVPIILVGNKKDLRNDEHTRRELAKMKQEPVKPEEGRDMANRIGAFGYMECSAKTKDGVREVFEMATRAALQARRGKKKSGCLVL

- Inhibition of RhoA•GMPPNP binding to ROCK1: successfully inhibited
SMILES: Nc1nc2c(ncn2[C@@H]2O[C@H](COP(=O)(O)OP(=O)(O)O)[C@@H](O)[C@H]2O)c(=O)[nH]1 [GDP]
